Measured values published in PMC5213423, “Identification of a Drug Targeting an Intrinsically Disordered Protein Involved in Pancreatic Adenocarcinoma” (Scientific Reports, 2017).
Structures can show the parent of a compound that is named as a salt. Where two headings read alike, the source gives them in different places.

What was measured:
[1] = molecular target: T1, NUPR1 (Homo sapiens, UniProt O60356); experiment: Isothermal titration calorimetry (ITC) of compound binding to NUPR1; details: 25 °C; for Kd: 20 mM sodium phosphate pH 7, relative error is 20%
T1 construct: made in house; host or cells: E. coli
T1 sequence (O60356 1-82): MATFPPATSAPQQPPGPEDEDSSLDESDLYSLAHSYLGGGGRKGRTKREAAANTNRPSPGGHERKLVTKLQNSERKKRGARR
Experimental: Ligand binding to NUPR1 was determined with a high sensitivity isothermal titration calorimeter Auto-iTC200 (MicroCal–Malvern Instruments, Malvern UK). Protein samples and reference solutions were properly degassed and carefully loaded into the calorimetric cells to avoid bubble formation during stirring. Experiments were performed with freshly prepared buffer-exchanged protein solutions, at 25 °C in 20 mM sodium phosphate pH 7. NUPR1 20 μM solution in the calorimetric cell was titrated with 300–400 μM compound solution. A sequence of 19 injections of 2 μL volume was programmed with a stirring speed of 1000 rpm. The heat evolved after each ligand injection was obtained from the integral of the calorimetric signal. The heat due to the binding reaction was obtained as the difference between the reaction heat and the corresponding heat of dilution, the latter estimated as a constant value throughout the experiment, and included as an adjustable parameter in the analysis. Control experiments (compound injected into buffer) were performed under the same experimental conditions. The association constant (Ka) and the enthalpy change (ΔH) of the binding reaction were obtained through non-linear regression of experimental data to a model for a protein with a single ligand binding site. Experiments were performed in replicates and data were analyzed using in-house developed software implemented in Origin 7 (OriginLab, Northampton, MA).

[2] = molecular target: T1, NUPR1; experiment: 2D 1H-15N HSQC NMR cross-peak broadening of NUPR1 upon compound addition; assay type: binding; details: NUPR1 100 μM : compound 400 μM, 25 °C, pH 4.5
Experimental: The NMR data were acquired at 25 °C, pH 4.5 (acetate buffer), on a Bruker Avance DRX-500 spectrometer equipped with a triple-resonance probe and z-gradients. All spectra were referenced to external TSP.
The 2D ^1H-^15N heteronuclear single-quantum coherence (HSQC) spectra[42] were acquired in the phase sensitive mode for isolated ^15N-labelled NUPR1 (100 μM) or ^15N-labelled NUPR1 (100 μM) in the presence of the corresponding compound (400 μM). […] Frequency discrimination in the indirect dimensions was achieved by using the echo/antiecho-TPPI method. […] The carrier of the ^1H dimension was set at 8.00 ppm, and that of ^15N at 120 ppm. The spectral widths used were 10 and 35 ppm in the ^1H and ^15N dimensions, respectively. Water signal was suppressed with the WATERGATE sequence. Data were zero-filled to double the number of original points in both dimensions, apodized with shifted squared sine-bell functions in the two dimensions and Fourier transformed with the program TopSpin 1.2. Assignments were taken from those previously reported. The intensity of the signals from each row in the HSQC spectra was measured by using TopSpin 2.1 taking into account, as an internal reference, the intensity of the last residue of NUPR1. Only differences in intensity of a particular residue between spectra of the complex (NUPR1:Compound) and that of isolated NUPR1 larger than 10%, were considered significant.

[3] = test system: MiaPaCa-2 cells; experiment: Colony formation in soft agar (clonogenicity); assay type: cell-based, human; details: 10 μM compound
Experimental: Colony formation assay was performed in order to measure the in vitro survival ability of a single cell to grow into a colony in an anchorage-independent growth environment. Briefly, after treating MiaPaCa-2 cells with either the compounds or DMSO (as control) for 24 and 48 h, they were seeded in DMEM complete media at a density of 7 × 10^3 cells in 6-well plates containing a top layer of 0.7% agar and a bottom layer of 1% agar. Plates were incubated at 37 °C for 3 to 4 weeks and then stained with 0.2% crystal violet. […] Comparisons of treatment outcome were tested for statistical significance by using the t-test.

[4] = molecular target: T2, NUPR1/MSL1 interaction (Homo sapiens, UniProt O60356); experiment: Proximity ligation assay (PLA) of NUPR1-MSL1 interaction after Oxaliplatin-induced DNA damage; assay type: cell-based; details: 1 to 20 μM compound, Oxaliplatin 10 μM, 24 h
T2 construct: expressed in transfected cells; host or cells: MiaPaCa-2 (human pancreatic cancer cells)
T2 sequence (O60356 1-82): T1 sequence (O60356 1-82)
Experimental: MiaPaCa-2 cells were seeded on coverslips and transfected with 300 ng of DNA (NUPR1-Flag and MSL1-V5) using Fugene HDTM transfection reagent (Roche, Meylan, France). […] Cells were washed twice in PBS, fixed, permeabilized and saturated for 45 min before immunostaining with DuoLink kit (Olink Bioscience, Uppsala, Sweden) following the manufacturer’s protocol. Image acquisition was carried out on a Nikon Eclipse 90i fluorescence microscope (Nikon Instruments, Amsterdam, Netherlands). Images at 40x magnification were analyzed with ImageJ to count the number of red dots which represent NUPR1/MSL1 binding. The reduction in the number of red fluorescent dots is proportional to the inhibition of MSL1-NUPR1 interaction by Compound-15.

[5] = test system: primary murine PDAC cell line WT; experiment: Cell viability assay, primary murine PDAC cells, NUPR1 wild-type (WT); assay type: cell-based, mouse; details: 6 days
Experimental: (§1) MiaPaCa-2 cells were obtained from ATCC (Manassas, VA) and maintained in Dulbecco’s Modified Eagle’s Medium (DMEM) (Invitrogen, Carlsbad, CA) supplemented with 10% FBS (Foetal Bovine Serum) at 37 °C with 5% CO2. MiaPaCa-2 cells were authenticated using Short Tandem Repeat analysis (LGC Standards GmbH, Wesel, Germany). […]in reagent (Polyplus-transfection, Illkirch, France) was used to perform siRNA transfections according to the manufacturer’s protocol. Scrambled siRNA targeting no known gene sequence was used as negative control. The sequence of NUPR1-specific siRNA-nupr1 r([…])dTdT was previously reported. Knock-out cells were established in the laboratory from a mice model of pancreatic cancer, known as Pdx1-Cre-Kras^G12D/INK4^flox/flox and for those nupr1 was deleted. These cells have been supplied with DMEM (4.5 g/L) and Glutamax (Life Technologies, Carlsbad, CA), supplemented with 10% of FBS.

[6] = test system: primary murine PDAC cell line NUPR1 KO; experiment: Cell viability assay, primary murine PDAC cells, NUPR1 knocked-out (KO); assay type: cell-based, mouse; details: 6 days
Experimental: as §1

[7] = test system: MiaPaCa-2 cells; experiment: Real-time iCELLigence impedance proliferation assay; assay type: cell-based, human; details: 10 μM Compound-15 vs 60 nM Gemcitabine, 4 μM Oxaliplatin
Experimental: Cell proliferation was monitored in real-time using the […] system E-Plate (ACEA Biosciences, San Diego, CA). Forty thousand MiaPaCa-2 cells were seeded in each well with fresh DMEM. […] Cells were incubated for another 3 days. The impedance value of each well was automatically monitored by the […] system for 3 days and expressed as a CI (cell index) value.

[8] = test system: MiaPaCa-2 cells; experiment: Wound healing (cell migration) assay; assay type: cell-based, human; details: 10 μM, after 48 h
Experimental: Cells (10000 cells/well) were seeded in 24-well plates and grown to confluence. […] Either fresh medium with 10 μM of the corresponding compound were added or DMSO (as control). Cell migration to the wounded region was observed using an automated fluorescence inverted microscope Leica DMI 6000B with MetaMorph MM AF analysis software (Leica Microsystems, Wetzlar, Germany). Images were captured at 0, 24 and 48 h to monitor the wound healing process. The wound areas were measured using ImageJ software (NIH, Bethesda, MD). Comparisons of treatment outcome were tested for statistical significance by using the t-test. Statistical significance was assumed at a p-value lower than 0.05.

[9] = test system: human PDAC-derived xenografts (MiaPaCa-2); experiment: Subcutaneous MiaPaCa-2 xenograft in NMRI-Nude mice; assay type: in vivo; details: for Tumor volume: start 400 mm^3
Experimental: NMRI-Foxn1^nu/Foxn1^nu mice were provided by Janvier Laboratories (Le Genest-Saint-Isle, France). Mice were kept within the Experimental Animal House of the Centre de Cancérologie de Marseille (CRCM) pôle Luminy. All experimental protocols were carried out in accordance with nationally approved guidelines for the treatment of laboratory animals. All experimental procedures on animals were approved by the Comité d’éthique de Marseille numéro 14. Ten millions MiaPaCa-2 cells were inoculated subcutaneously and mice were separated into 3 groups of 6 subjects each. Mice were treated daily with either physiologic serum, 5 mg/kg or 10 mg/kg of the compound when the tumor volume reached approximately 400 mm^3. Every 5 days, the weight and the tumors volumes were measured. Mice were sacrificed after 35 days of treatment.

[10] = test system: MiaPaCa-2 cells; experiment: Cell viability assay (CellTiter-Blue), MiaPaCa-2
Experimental: (§2) Cells (10000 cells/well) were plated in 96-well plates with DMEM. Twenty-four hours later, the media were supplemented with 10 μM of Compound and were incubated for another additional six days. Each experiment was performed in duplicate and repeated at least three times. Cell viability was estimated after addition of the CellTiter-Blue viability reagent (Promega, Madrid, Spain) for 1 h according to the protocol provided by the supplier. Cell viability was measured on day 6 and normalized regarding untreated cells rates. Statistical significance was assumed at a p-value lower than 0.05.

[11] = test system: MiaPaCa-2 cells; experiment: Chemograms of Gemcitabine or Oxaliplatin with or without Compound-15
Experimental: as §2

Compound | Kd [1] | Residues of NUPR1 with NMR-cross-peak broadening affected by binding [2] | also measured
CC(C)NCC(O)c1ccc(O)c(O)c1.O=C(O)C(O)C(O)C(=O)O (single isomer, unassigned; (+)) [Compound-9, (+)-Isoproterenol (+)-bitartrate salt] | 4 µM | Ser9; Ala10; Leu29; Ala33; Gly38; Thr68 | 
CC(C)NCC(O)c1ccc(O)c(O)c1.Cl (single isomer, unassigned; (-)) [compound 5, (-)-Isoproterenol hydrochloride] | 3.9 µM | Thr68 | 
CC(C)(C)c1ccc(C(O)CCCN2CCC(C(O)(c3ccccc3)c3ccccc3)CC2)cc1 (stereo not shown) [Compound-1, Terfenadine] | 5 µM |  | 
OCCN1CCN(CCCN2c3ccccc3Sc3ccc(C(F)(F)F)cc32)CC1 [Compound-2, Fluphenazine dihydrochloride] | 2 µM | Thr68 | 
Fc1ccc(C(c2ccc(F)cc2)N2CCN(C/C=C/c3ccccc3)CC2)cc1 [Compound-6, Flunarizine dihydrochloride] | 3.1 µM | Ala33; Thr68 | 
CCCCN(CCCC)CCC(O)c1cc2c(Cl)cc(Cl)cc2c2cc(C(F)(F)F)ccc12 (stereo not shown) [Compound-7, Halofantrine hydrochloride] | 3.3 µM | Thr68 | 
C[C@H](N)[C@H](O)c1ccc(O)c(O)c1 [Compound-8, Levonordefrin] | 1.5 µM | Ala33; Thr68 | 
CC(C)N1CCN(c2ccc(OCC3COC(Cn4cncn4)(c4ccc(Cl)cc4Cl)O3)cc2)CC1 (stereo not shown) [Compound-11, Terconazole] |  | Thr68 | 
CC(C)(C)CC(C)(C)c1ccc(OCCOCC[N+](C)(C)Cc2ccccc2)cc1 [Compound-13, Benzethonium chloride] |  |  | Colony formation [3]: completely inhibited colony formation
CN1CCN(CCCN2c3ccccc3Sc3ccc(C(F)(F)F)cc32)CC1 [Compound-15, Trifluoperazine dihydrochloride] | 5.2 µM | Ala33; Thr68 | ΔG (Gibbs energy of binding) ([1]; pH 7): -7.2 kcal/mol; ΔH of binding ([1]; pH 7): -1.1 kcal/mol; −TΔS of binding ([1]; pH 7): -6.1 kcal/mol; Colony formation [3]: completely inhibited colony formation; NUPR1 and MSL1 interaction (PLA red dots) [4]: interfered in the NUPR1-MSL1 interaction; viability at 10 µM ([5]; Mus musculus, 144 h, WT murine cells): 35%; NUPR1-dependent effect ([5]; difference WT vs KO viability, 10 μM): around 37%; viability at 10 µM ([6]; Mus musculus, 144 h, NUPR1 KO murine cells): 72%; NUPR1-independent killing effect ([6]; from KO cell viability, 10 μM): ~28%; Growth arrest in real-time proliferation compared with Oxaliplatin or Gemcitabine [7]: stronger growth-arrest; Distance migrated compared to Compound-free cells [8]: 25%; Tumor volume increase compared to the control ([9]; 5 mg/kg daily, two weeks): 50%; Tumor volume ([9]; 5 mg/kg daily, two weeks): 767 ± 196 mm^3; Tumor volume ([9]; 10 mg/kg daily, two weeks): 558 ± 152 mm^3; Tumor growth ([9]; 10 mg/kg daily, up to 4 weeks): rapidly, and almost completely, stopped; viability at 10 µM ([10]; Homo sapiens, MIA PaCa-2, 144 h, read-out: Cell viability): 26 ± 7%
Nc1ccn([C@@H]2O[C@H](CO)[C@@H](O)C2(F)F)c(=O)n1 [Gemcitabine] |  |  | IC50 ([11]; Homo sapiens, MIA PaCa-2, 72 h, read-out: IC50 (concentration reducing cell viability to one half)): 0.06 µM; viability at 0.06 µM ([11]; Homo sapiens, MIA PaCa-2, read-out: Cell viability): 41 ± 0.4%
O=C1[O][Pt]2([NH][C@@H]3CCCC[C@H]3[NH]2)[O]C1=O [Oxaliplatin] |  |  | Cell viability ([10]; MiaPaCa-2, 10 μM of each compound, 6 days, normalized to untreated cells): 10 ± 2%; Cell viability ([11]; 4 μM Oxaliplatin alone): 53 ± 0.4%; IC50 ([11]; drug alone, MiaPaCa-2, 3 days): 4 µM
O=C(O)/C=C/c1ccc(O)c(O)c1 [compound 3, Caffeic acid] | 2 µM | Ala33; Thr68 | 
COC(=O)[C@H]1[C@H]2C[C@@H]3c4[nH]c5cc(OC)ccc5c4CCN3C[C@H]2C[C@@H](OC(=O)c2cc(OC)c(OC)c(OC)c2)[C@@H]1OC [compound 4, Reserpine] | 3.2 µM | Thr68 | 
CN(C)CCC(c1ccccc1)c1ccccn1 (stereo not shown) [compound 10, Pheniramine maleate] | 4.3 µM | Ser9; His62; Thr68 | 
CN(C)[C@@H]1C(O)=C(C(N)=O)C(=O)[C@@]2(O)C(O)=C3C(=O)c4c(O)ccc(Cl)c4[C@@](C)(O)[C@H]3C[C@@H]12 [compound 14, Chlortetracycline hydrochloride] | 1.5 µM | Ala33; Thr68 | 
